The values below come from patent US4041076A, “Immunoassay for pharmacologically active phenethylamines” (Hoffmann-La Roche Inc., priority 1976, dated 1977).

Molecules are shown by their SMILES.

In experiment [1] the test system is amphetamine antibody (pooled antisera). Description: Radioimmunoassay for amphetamine (displacement of 125I-labeled amphetamine analog from antibody). The class given is binding, goats. To be noted: for Cross-reactivity: concentration of amphetamine equivalent in the assay to 10 μg/ml. of the test drug: pooled antisera selected for low cross-reactivity; for Relative Reactivity, Radioimmunoassay: cross-reactivity expressed as relative reactivity.

For experiment [2] the following is noted: cross-reactivity expressed as relative reactivity; Braitin and Sunshine 1973; cited from earlier work.
For experiment [3] the following is noted: cross-reactivity expressed as relative reactivity; Braitin and Sunshine 1973; cited from earlier work. The source holds these as a separate data set.

Regarding `COc1ccc2c(c1)C13CCCCC1C(C2)N(C)CC3` (single isomer, unassigned) [Dextromethorphan], in experiment [1] (test drug at 10 μg/ml), the “Cross-reactivity: concentration of amphetamine equivalent in the assay to 10 μg/ml. of the test drug” value (“Cross-reactivity: concentration” for short) was 0.003 µg/mL.

As for `CNC(C)CC1CCCC1` (centres unmarked) [Cyclopentamine], the “Relative Reactivity, Radioimmunoassay” value in experiment [1] stood at 0.02. Moreover, in experiment [2], the “Relative Reactivity, EMIT” value is 0.3. In addition, the “Relative Reactivity, FRAT” value in experiment [3] is listed as 0.2. Regarding `NCCc1ccc(O)c(O)c1` [Dopamine], the “Cross-reactivity: concentration” value in experiment [1] (test drug at 10 μg/ml) worked out at 0.015 µg/mL. As for `CN[C@@H](C)[C@H](O)c1ccccc1` [Ephedrine (1-form), Ephedrine], the “Relative Reactivity, Radioimmunoassay” value in experiment [1] is on record as 0.0003. For the same molecule, the “Cross-reactivity: concentration” value in experiment [1] (test drug at 10 μg/ml) was found to be 0.003 µg/mL. In addition, in experiment [2], the “Relative Reactivity, EMIT” value is 0.2. In addition, the “Relative Reactivity, FRAT” value in experiment [3] was 0.15. `CC(C)NCC(O)c1ccc(O)c(O)c1` (centres unmarked) [Isoproterenol]: the “Cross-reactivity: concentration” value in experiment [1] (test drug at 10 μg/ml) is 0 µg/mL. Consider `CC(COc1ccccc1)NC(C)C(O)c1ccc(O)cc1` (centres unmarked) [Isoxsuprine], for which, in experiment [1], the “Relative Reactivity, Radioimmunoassay” value stood at 0. Moreover, in experiment [2], the “Relative Reactivity, EMIT” value was 0.2. In addition, the “Relative Reactivity, FRAT” value in experiment [3] is reported as 0.05. For `CNC(C)(C)Cc1ccccc1` [Mephentermine], in experiment [2], the “Relative Reactivity, EMIT” value is given as 0.6. `NCC(O)c1ccc(O)c(O)c1` (centres unmarked) [Norepinephrine]: the “Cross-reactivity: concentration” value in experiment [1] (test drug at 10 μg/ml) worked out at 0.003 µg/mL.

For `CC(CCc1ccccc1)NC(C)C(O)c1ccc(O)cc1` (centres unmarked) [Nylidrin], in experiment [3], the “Relative Reactivity, FRAT” value is given as 0.1. Take `CC1NCCOC1c1ccccc1` (centres unmarked) [Phenmetrazine]: in experiment [1] (test drug at 10 μg/ml), the “Cross-reactivity: concentration” value came out at 0.06 µg/mL.

For `CC(C)(N)Cc1ccccc1` [Phentermine], the “Relative Reactivity, Radioimmunoassay” value in experiment [1] is listed as 0.07. In experiment [1] (individual sera (not the selected pool), test drug at 10 μg/ml), the “Amphetamine equivalent when tested with 10 μg/ml. of test drug, individual sera” value fell in the range of 2 to 5 µg/mL. Moreover, the “Cross-reactivity: concentration” value in experiment [1] (test drug at 10 μg/ml) amounted to 0.7 µg/mL. In addition, the “Relative Reactivity, FRAT” value in experiment [3] is given as 1.0.

Consider `CC(N)C(O)c1ccccc1` (centres unmarked) [Phenylpropanolamine], for which the “Cross-reactivity: concentration” value in experiment [1] (test drug at 10 μg/ml) came out at 0.17 µg/mL. As for `CNC(C)CC1CCCCC1` (centres unmarked) [Propylhexedrine], the “Relative Reactivity, Radioimmunoassay” value in experiment [1] came to 0.03. Besides, the “Cross-reactivity: concentration” value in experiment [1] (test drug at 10 μg/ml) was 0.3 µg/mL. For the same molecule, the “Relative Reactivity, FRAT” value in experiment [3] was 0.5. As for `NCCc1ccc(O)cc1` [Tyramine], the “Cross-reactivity: concentration” value in experiment [1] (test drug at 10 μg/ml) stood at 0.17 µg/mL.
